Assay results: patent US20240241113A1, “Method for detecting binding to an ADP-ribosyl group or a polymer thereof and a kit for performing said method” (priority 2021, published 2024)
pIC50: −log10 of the molar value.

How the values were obtained:
[1] = tested on: viral and human ADP-ribose readers and erasers; assay: FRET inhibition profile against ADP-ribosyl binders with YFP-GAP(MAR) or YFP-GAP(PAR); type: binding; settings: 10 μM suramin; many of the proteins tested; ratiometric FRET
Description: (§1) The experiments were carried out in assay buffer (10 mM Bis-Tris-Propane pH 7.0, 3% (w/v) PEG20,000, 0.01% (v/v) Triton X-100 and 0.5 mM TCEP) in 10 μl volume per well unless stated otherwise.

[2] = molecular target: T1, SARS-CoV-2 nsp3 macrodomain (Severe acute respiratory syndrome coronavirus 2, UniProt P0DTD1); assay: Validation of suramin binding by DSF; settings: 5 μM macrodomain without tags, suramin 10 μM, 50 μM, 100 μM or 1 mM
Description: The SARS-CoV-2 nsp3 macrodomain without tags was diluted to 5 μM in 10 mM HEPES pH 7.5, 25 mM NaCl, 0.5 mM TCEP buffer and mixed with 5×SYPRO Orange. Samples were prepared with 10 μM, 50 μM, 100 μM or 1 mM of suramin. […] Samples were transferred to 96-well qPCR plates. Measurement was performed in a BioRad C1000 CFX96 thermal cycler. Data points for melting curves were recorded in 1 min intervals from 20-95° C., with the temperature increasing by 1° C./min. The analysis of the data was done in GraphPad Prism 7 using a nonlinear regression analysis (Boltzmann sigmoid equation) of normalized data.

[3] = molecular target: T1, SARS-CoV-2 nsp3 macrodomain; assay: FRET-based binding assay, CFP-SARS-CoV-2 nsp3 macrodomain with MARylated YFP-Gαi
Description: as §1
For the screening, 40 nl of 10 mM compound stocks dissolved in DMSO from the FDA-approved drug library (Enzo Life Sciences) were transferred to 384-well black low-volume polypropylene plates (Fisherbrand). The sample mixture containing 1 μM CFP-SARS-CoV-2 nsp3 macrodomain and 5 μM MARylated YFP-Gαi was prepared in assay buffer (10 mM Bis-Tris-Propane pH 7.0, 3% (w/v) PEG20,000, 0.01% (v/v) Triton X-100 and 0.5 mM TCEP) and 20 μl per well were dispensed using Mantis (Formulatrix). The rFRET signal was determined after 5 minute incubation time.

SARS-CoV2 = settings: cell-culture based models; reported; cited from earlier work
CFP-ALC1 (human) = CFP-ALC1 (human) (UniProt Q86WJ1); assay: FRET competition: 250 nM CFP-ALC1 + 500 nM YFP-GAP(PAR), PARylated PARP2 varied; displaced ligand YFP-GAP(PAR) [e]
Chain of CFP-ALC1 (human) (Q86WJ1 616-878 limits assumed): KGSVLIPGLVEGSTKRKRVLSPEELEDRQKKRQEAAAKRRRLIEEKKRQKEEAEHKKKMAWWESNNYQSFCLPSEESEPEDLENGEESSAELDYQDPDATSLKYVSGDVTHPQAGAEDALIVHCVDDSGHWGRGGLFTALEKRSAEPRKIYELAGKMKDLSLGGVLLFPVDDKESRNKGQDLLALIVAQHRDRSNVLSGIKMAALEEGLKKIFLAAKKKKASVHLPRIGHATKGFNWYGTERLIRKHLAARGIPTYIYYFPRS

Row | Compound | inhibition of viral and human ADP-ribose readers and erasers [1] | stabilization of the protein by DSF [2] | stabilization of the protein by DSF ([2]; listed as Suramin) | inhibition at 20 µM ([3]; 20 μM compound, 1 μM CFP-SARS-CoV-2 nsp3 macrodomain, 5 μM MARylated YFP-Gαi, rFRET, read-out: inhibition in screen of ENZO FDA-approved drug library) [%] | pIC50 ([3]; FRET-based assay, dose-response curve, read-out: IC50 against the SARS-CoV-2 nsp3 macrodomain) | inhibition of SARS-CoV2 infection (SARS-CoV2) | IC50 (read off the curve) (CFP-ALC1 (human)) [µM]
1 | Cc1ccc(C(=O)Nc2ccc(S(=O)(=O)O)c3cc(S(=O)(=O)O)cc(S(=O)(=O)O)c23)cc1NC(=O)c1cccc(NC(=O)Nc2cccc(C(=O)Nc3cc(C(=O)Nc4ccc(S(=O)(=O)O)c5cc(S(=O)(=O)O)cc(S(=O)(=O)O)c45)ccc3C)c2)c1 [suramin] | strong inhibition | stabilization of the protein in a concentration dependent manner | stabilization | 82 | 5.06 | inhibit | –
2 | PARylated PARP2 (from UniProt Q9UGN5 90-583) (enzyme) | – | – | – | – | – | – | 0.03
